Test results: patent US20250177566A1, “USE OF CHEMICAL EPIGENETIC MODIFIERS TO MODULATE GENE EXPRESSION” (The University of North Carolina at Chapel Hill, priority 2022, published 2025)

Tests used:
Format in all cases: cell-based, human
[1] = tested on: CXCR4; experiment: CXCR4 mRNA activation in HCT116 stably expressing dCas9 and MS2-FKBP*x2, qRT-PCR; settings: for fold change, CXCR4 mRNA (CEM Treated vs Non-Treated): 48 hrs; for fold change, CXCR4 mRNA (CXCR4 gRNA vs NT gRNA): FIG. 3B; for fold change, CXCR4 mRNA (CXCR4 gRNA vs NT gRNA) / fold change, CXCR4 mRNA (washout vs AP1867 competition) / fold change, CXCR4 mRNA (Compare to 0 h): CEM203 50 nM; for fold change, CXCR4 mRNA (washout vs AP1867 competition): FIG. 3C; for fold change, CXCR4 mRNA (Compare to 0 h): FIG. 7A
Protocol: To further explore the activation potential of the SLF*-CEMa, their ability to target endogenous genes was evaluated (FIGS. 2A and 2B). Lentivirus was used to establish a stable HCT116 cell line expressing dCas9 and MS2-FKBP*x2 constructs, selecting for cells with antibiotic resistance. […] All CEMs were screened for their ability to activate the CXCR4 gene at 5 nM (FIG. 2C). RNA extraction and quantitative RT-PCR (qRT-PCR) were performed after 48 hours of CEM treatment.
To determine the optimal treatment concentration of the SLF*-CEMa molecules in this context, HCT116 cells were treated with 1 nM, 5 nM, 25 nM, and 50 nM of CEM203, CEM207, or CEM87. […] After 48 hours, RNA extraction followed by qRT-PCR was performed to evaluate the change in mRNA expression of CXCR4 (FIG. 2D). […] To directly compare this induced activation to other CRISPR-Cas9-based epigenetic activators, dCas9-VPR and dCas9-p300 constructs were virally infected into HCT116 cells and CXCR4 activation assessed in a similar fashion (FIGS. 2A and 2B).
To determine the time at which SLF*-CEMa most effectively induces gene activation, CXCR4 gene expression changes over time were investigated in dCas9 and MS2-FKBP*x2 stably infected HCT116 cells. Cells were treated with either vehicle, […] (FIG. 3A). RNA extraction and qRT-PCR were performed at 12, 24, 48, 72, and 96 hrs time points (FIG. 3B).
To investigate if endogenous gene activation triggered by the SLF*-CEMa compounds is also reversible, HCT116 cells were treated with CEM203 (50 nM) or CEM207 (25 nM) for 24 hours after transfecting CXCR4 gRNA, and then the CEMs were removed by media exchange at various time points. […] Likewise, it was investigated whether treatment with excess AP1867 could further reverse gene activation, potentially in a more robust fashion than with washout alone if there is any remaining intracellular SLF*-CEMa. To test this, after 24 hours of SLF*-CEMa treatment, a media exchange containing 20 μM AP1867 was performed (FIGS. 3C and 3D).
RNA extraction and qRT-PCR. All RNA extraction experiments were conducted in 12-well plate format. Culturing medium was removed, and cells were washed with 1×PBS, following with 0.05% trypsin to disassociate. After being quenched by medium and centrifuged, cells were washed with 1×PBS, and the RNA extraction was performed by using RNeasy Plus Mini kit (Qiagen, 74134). RT-qPCR was conducted by using RNA-to CT 1-step kit (Thermo Fisher Scientific, 4389986). The primer sets used in quantifying each gene can be found in Table 4.

[2] = tested on: TRE3G-GFP reporter gene; experiment: TRE3G-GFP reporter gene activation in HCT116, dCas9 + MS2-FKBP*x2 (F36V) system, flow cytometry; parameters: fold change, GFP: reference not given here; settings: FIG. 5A, 10 nM, 48 hrs
[3] = tested on: CXCR4; experiment: CXCR4 mRNA activation in HCT116 stably expressing dCas9 and MS2-FKBPx2 (WT-FKBP), qRT-PCR; settings: FIG. 6, WT FKBP system, 48 hrs

SMILES: CC[C@H](C(=O)N1CCCC[C@H]1C(=O)O[C@H](CCc1ccc(OC)c(OC)c1)c1cccc(OCC(=O)NCCOCCOCCOCCOCCNC(=O)C[C@@H]2N=C(c3ccc(Cl)cc3)c3cc(OC)ccc3-n3c(C)nnc32)c1)c1cc(OC)c(OC)c(OC)c1 [CEM203, (1R)-1-(3-((20-((4S)-6-(4-Chlorophenyl)-8-methoxy-1-methyl-4H-benzo[f][1,2,4]triazolo[4,3-a][1,4]diazepin-4-yl)-2,19-dioxo-6,9,12,15-tetraoxa-3,18-diazaicosyl)oxy)phenyl)-3-(3,4-dimethoxyphenyl) propyl (2S)-1-((S)-2-(3,4,5-trimethoxyphenyl)butanoyl) piperidine-2-carboxylate]
- fold change, CXCR4 mRNA (CEM Treated vs Non-Treated) ([1]; FIG. 2D, CXCR4 gRNA, 1 nM): 2.3 fold
- fold change, CXCR4 mRNA (CEM Treated vs Non-Treated) ([1]; FIG. 2D, CXCR4 gRNA, 5 nM): 13.0 fold
- fold change, CXCR4 mRNA (CEM Treated vs Non-Treated) ([1]; FIG. 2D, CXCR4 gRNA, 25 nM): 35.9 fold
- fold change, CXCR4 mRNA (CEM Treated vs Non-Treated) ([1]; FIG. 2D, CXCR4 gRNA, 50 nM): 54.0 fold
- fold change, CXCR4 mRNA (CEM Treated vs Non-Treated) ([1]; FIG. 2D, NT gRNA, 1 nM): 0.98 fold
- fold change, CXCR4 mRNA (CEM Treated vs Non-Treated) ([1]; FIG. 2D, NT gRNA, 5 nM): 1.30 fold
- fold change, CXCR4 mRNA (CEM Treated vs Non-Treated) ([1]; FIG. 2D, NT gRNA, 25 nM): 2.42 fold
- fold change, CXCR4 mRNA (CEM Treated vs Non-Treated) ([1]; FIG. 2D, NT gRNA, 50 nM): 2.57 fold
- CXCR4 activation compared to dCas9-p300 ([1]; FIG. 2D, concentrations above 5 nM): higher CXCR4 activation
- fold change, CXCR4 mRNA (CXCR4 gRNA vs NT gRNA) ([1]; 24 h): 17.9 fold
- fold change, CXCR4 mRNA (CXCR4 gRNA vs NT gRNA) ([1]; 48 h): 19.8 fold
- fold change, CXCR4 mRNA (CXCR4 gRNA vs NT gRNA) ([1]; 48 h AP1867 (washout with 20 μM AP1867 after 24 hrs)): 3.6 fold
- fold change, CXCR4 mRNA (CXCR4 gRNA vs NT gRNA) ([1]; 48 h wash (media washout after 24 hrs)): 7.7 fold
- fold change, CXCR4 mRNA (CXCR4 gRNA vs NT gRNA) ([1]; 72 h): 13.1 fold
- fold change, CXCR4 mRNA (CXCR4 gRNA vs NT gRNA) ([1]; 72 h AP1867 (washout with 20 μM AP1867 after 24 hrs)): 1.9 fold
- fold change, CXCR4 mRNA (CXCR4 gRNA vs NT gRNA) ([1]; 72 h wash (media washout after 24 hrs)): 5.6 fold
- fold change, CXCR4 mRNA (CXCR4 gRNA vs NT gRNA) ([1]; 96 h AP1867 (washout with 20 μM AP1867 after 24 hrs)): 1.2 fold
- fold change, CXCR4 mRNA (CXCR4 gRNA vs NT gRNA) ([1]; 96 h wash (media washout after 24 hrs)): 3.3 fold
- fold change, CXCR4 mRNA (washout vs AP1867 competition) ([1]; 48 h): 1.5 fold
- fold change, CXCR4 mRNA (washout vs AP1867 competition) ([1]; 72 h): 4.2 fold
- fold change, CXCR4 mRNA (washout vs AP1867 competition) ([1]; 96 h): 1.7 fold
- fold change, CXCR4 mRNA (Compare to 0 h) ([1]; NT gRNA, 12 h): 4.9 fold
- fold change, CXCR4 mRNA (Compare to 0 h) ([1]; NT gRNA, 24 h): 2.2 fold
- fold change, CXCR4 mRNA (Compare to 0 h) ([1]; NT gRNA, 48 h): 1.1 fold
- fold change, CXCR4 mRNA (Compare to 0 h) ([1]; NT gRNA, 48 h AP1867 (washout with 20 μM AP1867 after 24 hrs)): 0.8 fold
- fold change, CXCR4 mRNA (Compare to 0 h) ([1]; NT gRNA, 48 h wash (media washout after 24 hrs)): 0.7 fold
- fold change, CXCR4 mRNA (Compare to 0 h) ([1]; NT gRNA, 72 h): 1.0 fold
- fold change, CXCR4 mRNA (Compare to 0 h) ([1]; NT gRNA, 72 h AP1867 (washout with 20 μM AP1867 after 24 hrs)): 0.6 fold
- fold change, CXCR4 mRNA (Compare to 0 h) ([1]; NT gRNA, 72 h wash (media washout after 24 hrs)): 0.8 fold
- fold change, CXCR4 mRNA (Compare to 0 h) ([1]; NT gRNA, 96 h): 1.3 fold
- fold change, CXCR4 mRNA (Compare to 0 h) ([1]; NT gRNA, 96 h AP1867 (washout with 20 μM AP1867 after 24 hrs)): 0.5 fold
- fold change, CXCR4 mRNA (Compare to 0 h) ([1]; NT gRNA, 96 h wash (media washout after 24 hrs)): 0.7 fold
- CXCR4 mRNA expression after CEM washout in comparison to cells continuously treated ([1]; FIGS. 3C and 3D, CEM203 50 nM or CEM207 25 nM for 24 hours, then media exchange, all time points): significantly lowered CXCR4 mRNA expression
- time point of highest (peak) CXCR4 mRNA activation ([1]; time course 12, 24, 48, 72, 96 hrs, CXCR4 gRNA): 24 h
- fold change, GFP ([2]; NT gRNA): 0.7 fold
- fold change, GFP ([2]; TRE3G gRNA): 9.4 fold
- fold change, CXCR4 mRNA (CXCR4 gRNA vs NT gRNA) ([3]; 25 nM): 1.5 fold
- fold change, CXCR4 mRNA (CXCR4 gRNA vs NT gRNA) ([3]; 200 nM): 3.5 fold
